From patent US20190336579A1, “COMPOSITIONS AND METHODS TO INDUCE TARGETED APOPTOSIS BY MODULATING PROTEIN TYROSINE PHOSPHATASE 13 (PTPN13)” (National Jewish Health, priority 2010, published 2019)

Experiments:
caspase-8 = experiment: Caspase-8 activation (Fas-induced apoptosis) in lung fibroblasts; assay type: cell-based, human; conditions: MRC5
Protocol: To assess the effects of these cytokines on PTPN13 expression, non-diseased normal human lung fibroblasts (NHLF), fibrotic human lung fibroblasts (FHLF) and a fetal lung fibroblast cell line, MRC5 cells, were treated with TNF-α (10/ng/ml), IFN-γ (50 U/ml) or with both cytokines for 6 hours. PTPN13 expression was measured by quantitative PCR (FIG. 2A). The primary lung fibroblasts from normal and fibrotic lung had equivalent levels of PTPN13 expression to the MRC5 lung fibroblast cell line. […] Treatment with TNF-α alone caused a 40% decrease in PTPN13 expression. Combined exposure to TNF-α and IFN-γ decreased PTPN13 mRNA expression by 80%. Protein lysates from normal, fibrotic and MRC5 fibroblasts treated for 36 hours with TNF-α (10/ng/ml), IFN-γ (50 U/ml) or with both cytokines were then analyzed for PTPN13 expression. […]
In one exemplary method, to assess whether PTPN13 expression prevents Fas-induced apoptosis, PTPN13 expression was knocked-down using siRNA. […] Apoptosis was assayed by quantifying activation of caspase-3 and caspase-8 (FIG. 3C).
In death-receptor mediated apoptosis, formation of the DISC (Death-Inducing Signaling Complex) is essential for the initiation of apoptosis. […] The cells were lysed, immunoprecipitated with anti-Fas antibody, and co-immunoprecipitated FADD and caspase-8 were detected by immunoblotting. […]

Fas phospho-Y291 = experiment: Western blot of Fas tyrosine 291 phosphorylation in MRC5 lung fibroblasts; assay type: cell-based, human; conditions: pervanadate 150 μM, time dependent
Protocol: PTPN13 has been shown in astrocytoma cells to dephosphorylate Fas at tyrosine 291. Little is known about the regulatory function of tyrosine phosphorylation of Fas. In another exemplary embodiment, to assess the effect of TNF-α and IFN-γ sensitization on the levels of Fas tyrosine phosphorylation, MRC5 lung fibroblasts were treated with TNF-α and IFN-γ for increasing amounts of time. Because TNF-α is known to increase tyrosine phosphorylation of many proteins, such as MAP kinases and AKT, within minutes following stimulation, the kinetics of TNF-α and IFN-γ induced tyrosine phosphorylation of Fas were assessed. MRC5 lung fibroblasts were treated with TNF-α (10 ng/ml) and IFN-γ (50 U/ml) for up to 48 hours. The cells were lysed and analyzed by western blot for phosphorylated Fas, using a phospho-specific antibody for Fas phosho-Y291. TNF-α and IFN-γ increased tyrosine phosphorylation of Fas at tyrosine residue 291 beginning at 18 hours. […] The pervanadate treated MRC5 cells were lysed and analyzed the tyrosine phosphorylation of Fas by western blotting. […] We then detected phosphorylated Fas by Western blot, using a phospho-specific antibody for Fas tyrosine residue 291. […]
FIG. 5: Inhibition of tyrosine phosphatase activity sensitizes lung fibroblasts to Fas-induced apoptosis. […] Caspase-8 activation was measured by a fluorescence based assay. […]

For pervanadate, the “increase in caspase-8 activity over unstimulated cells” value (caspase-8; 150 μM pervanadate 2 hour pre-treatment, then Fas-activating antibody 250 ng/ml) was 6 fold, the “increase in caspase-8 activity above untreated cells” value (caspase-8; 150 μM pervanadate alone) was 2 fold and the “tyrosine phosphorylation of Fas” value (Fas phospho-Y291) was “increased”.
